Test results published in ChEMBL document CHEMBL5625205, “3-Methoxy-2-phenylimidazo[1,2-b]pyridazines highly active against Mycobacterium tuberculosis and Mycobacterium marinum” (Eur J Med Chem, 2023).
Converted amounts (≈) assume the structure as drawn. The source made the active and inactive calls. The calls are words filed in the database; no cut-off is given here.

Tests used:
[1] = tested on: Mycobacterium tuberculosis; assay: Antimycobacterial activity against Mycobacterium tuberculosis H37Ra assessed as inhibition of bacterial growth measured for 5 days by luminometer; type: functional; conditions: 120 h, time 5 day
Mycobacterium marinum = assay: Antimycobacterial activity against Mycobacterium marinum assessed as inhibition of bacterial growth measured for 5 days by luminometer; type: functional; conditions: 120 h, time 5 day
[2] = tested on: Mycobacterium tuberculosis; assay: Antimycobacterial activity against Mycobacterium tuberculosis H37Ra infected in mouse assessed as reduction in relative light unit in lung at 30 to 300 mg/kg,po administrated once daily for 5 days; type: functional, organism-based; conditions: dose 30-300 mg/kg, time 5.0 day

Row | SMILES | MIC90 [1] [µM] | MIC90 (Mycobacterium marinum) [µM] | Activity [2]
1 | COc1c(-c2ccccc2)nc2ccc(N(C)Cc3ccccc3)nn12 | 2.9 (≈ 0.999 µg/mL) | 1.45 (≈ 0.499 µg/mL) | –
2 | N#Cc1c(-c2ccccc2)nc2ccc(OCc3ccccc3)nn12 | > 300 | > 300 | –
3 | CN(Cc1ccccc1)c1ccc2nc(-c3ccc(Cl)cc3)c(O)n2n1 | 274 (≈ 100 µg/mL) | > 274 | –
4 | COc1cccc(CSc2ccc3nc(-c4ccc(Cl)cc4)c(OC)n3n2)c1 | 9.71 (≈ 4 µg/mL) | 3.03 (≈ 1.25 µg/mL) | –
5 | COc1cccc(CSc2ccc3nc(-c4ccc(Br)cc4)c(OC)n3n2)c1 | 11 (≈ 5 µg/mL) | 11 (≈ 5.02 µg/mL) | –
6 | COc1cccc(CSc2ccc3nc(-c4ccc(F)cc4)cn3n2)c1 | 27.4 (≈ 10 µg/mL) | 2.74 (≈ 1 µg/mL) | –
7 | COc1ccc(-c2nc3ccc(SCc4ccccc4)nn3c2OC)cc1 | > 260 | – | –
8 | CN(Cc1ccccc1)c1ccc2nc(-c3ccc(F)cc3F)c(O)n2n1 | 273 (≈ 100 µg/mL) | > 273 | –
9 | CN(Cc1ccccc1)c1ccc2nc(-c3ccc(Br)cc3)c(O)n2n1 | 244 (≈ 99.9 µg/mL) | > 244 | –
10 | COc1c(-c2ccccc2)nc2ccc(Cl)nn12 | 385 (≈ 100 µg/mL) | – | –
11 | COc1cccc(CS(=O)(=O)c2ccc3nc(-c4ccc(F)cc4F)c(OC)n3n2)c1 | 225 (≈ 100 µg/mL) | 225 (≈ 100 µg/mL) | –
12 | COc1c(-c2ccc(Cl)cc2)nc2ccc(N(C)Cc3ccccc3)nn12 | 6.6 (≈ 2.5 µg/mL) | 6.6 (≈ 2.5 µg/mL) | –
13 | COc1ccc(CSc2ccc3nc(-c4ccc(F)cc4)c(OC)n3n2)cc1 | 6.32 (≈ 2.5 µg/mL) | 12.6 (≈ 4.98 µg/mL) | –
14 | COc1ccc(CSc2ccc3nc(-c4ccccc4)c(OC)n3n2)cc1 | 5.3 (≈ 2 µg/mL) | 5.3 (≈ 2 µg/mL) | –
15 | COc1cccc(CSc2ccc3nc(-c4cccc([N+](=O)[O-])c4)c(OC)n3n2)c1 | > 230 | > 230 | –
16 | Brc1c(-c2ccccc2)nc2ccc(OCc3ccccc3)nn12 | > 260 | > 260 | –
17 | COc1c(-c2ccccc2)nc2ccc(SCc3ccsc3)nn12 | 0.7 (≈ 0.247 µg/mL) | 1.41 (≈ 0.498 µg/mL) | –
18 | COc1c(-c2ccc(C(F)(F)F)cc2)nc2ccc(N(C)Cc3ccccc3)nn12 | 6.06 (≈ 2.5 µg/mL) | 12.1 (≈ 4.99 µg/mL) | –
19 | COc1c(-c2ccc(F)cc2)nc2ccc(SCc3ccsc3)nn12 | 26.9 (≈ 9.99 µg/mL) | 5.38 (≈ 2 µg/mL) | –
20 | COc1cccc(COc2ccc3nc(-c4cccc(C(F)(F)F)c4)c(OC)n3n2)c1 | > 230 | – | –
21 | COc1c(-c2ccccc2)nc2ccc(SCc3ccccn3)nn12 | 5.74 (≈ 2 µg/mL) | 2.87 (≈ 1 µg/mL) | –
22 | COc1cccc(CNc2ccc3nc(-c4cccc([N+](=O)[O-])c4)c(OC)n3n2)c1 | > 240 | > 240 | –
23 | COc1c(-c2ccccc2)nc2ccc(SCc3nc4ccccc4n3C)nn12 | 24.9 (≈ 10 µg/mL) | 250 (≈ 100 µg/mL) | –
24 | CN(Cc1ccccc1)c1ccc2nc(-c3ccccc3)c(O)n2n1 | 303 (≈ 100 µg/mL) | > 303 | –

Row | SMILES | MIC90 [1] [µM] | MIC90 (Mycobacterium marinum) [µM] | Activity [2]
25 | COc1cccc(CSc2ccc3nc(-c4ccc(F)cc4F)cn3n2)c1 | 261 (≈ 100 µg/mL) | 261 (≈ 100 µg/mL) | –
26 | COc1cccc(CNc2ccc3nc(-c4ccc(F)cc4)c(OC)n3n2)c1 | 6.61 (≈ 2.5 µg/mL) | 13.2 (≈ 4.99 µg/mL) | –
27 | COc1cccc(CSc2ccc3nc(-c4ccccc4F)c(OC)n3n2)c1 | 1.26 (≈ 0.498 µg/mL) | 0.15 (≈ 0.0593 µg/mL) | inactive
28 | COc1c(-c2ccccc2)nc2ccc(SCc3cc(C)on3)nn12 | 284 (≈ 100 µg/mL) | 284 (≈ 100 µg/mL) | –
29 | CN(C)Cc1c(-c2ccccc2)nc2ccc(SCc3ccccc3)nn12 | 6.68 (≈ 2.5 µg/mL) | 13.4 (≈ 5.02 µg/mL) | –
30 | COc1c(Cc2ccccc2)nc2ccc(SCc3cccc(C)c3)nn12 | 87.9 (≈ 33 µg/mL) | 26.6 (≈ 9.99 µg/mL) | –
31 | COc1c(-c2ccccc2)nc2ccc(SC)nn12 | 18.4 (≈ 4.99 µg/mL) | 36.9 (≈ 10 µg/mL) | –
32 | Oc1ccccc1-c1nc2ccc(SCc3ccccc3)nn2c1Br | 243 (≈ 100 µg/mL) | 243 (≈ 100 µg/mL) | –
33 | COc1c(C)nc2ccc(Oc3ccccc3)nn12 | > 117 | – | –
34 | COc1c(-c2cccc(N)c2)nc2ccc(N(C)Cc3ccccc3)nn12 | 34.8 (≈ 12.5 µg/mL) | 13.9 (≈ 5 µg/mL) | –
35 | COc1c(-c2ccccc2)nc2ccc(SCc3ccccc3)nn12 | 1.44 (≈ 0.5 µg/mL) | 0.72 (≈ 0.25 µg/mL) | –
36 | Ic1c(-c2ccccc2)nc2ccc(OCc3ccccc3)nn12 | > 230 | > 230 | –
37 | COc1cccc(CNc2ccc3nc(-c4ccc(C)cc4)c(OC)n3n2)c1 | 13.4 (≈ 5.02 µg/mL) | 13.4 (≈ 5.02 µg/mL) | –
38 | Cc1c(-c2ccccc2)nc2ccc(OCc3ccccc3)nn12 | 317 (≈ 100 µg/mL) | 317 (≈ 100 µg/mL) | –
39 | COc1c(-c2ccccc2)nc2ccc(SCc3ccccc3Cl)nn12 | > 260 | – | –
40 | CN(Cc1ccccc1)c1ccc2nc(-c3ccc(F)cc3)c(O)n2n1 | 144 (≈ 50.2 µg/mL) | 144 (≈ 50.2 µg/mL) | –
41 | COc1cccc(CSc2ccc3nc(-c4ccc(Cl)c(Cl)c4)c(OC)n3n2)c1 | > 220 | > 220 | –
42 | CCOc1c(-c2ccccc2)nc2ccc(SCc3ccccc3)nn12 | 69.2 (≈ 25 µg/mL) | 69.2 (≈ 25 µg/mL) | –
43 | COc1cccc(CNc2ccc3nc(-c4ccc(C(F)(F)F)cc4)c(OC)n3n2)c1 | 11.7 (≈ 5.01 µg/mL) | 23.3 (≈ 9.98 µg/mL) | –
44 | COc1c(-c2ccccc2)nc2ccc(Sc3ccccc3)nn12 | 150 (≈ 50 µg/mL) | – | –
45 | COc1c(-c2ccc(F)cc2)nc2ccc(N(C)Cc3ccccc3)nn12 | 1.38 (≈ 0.5 µg/mL) | 1.38 (≈ 0.5 µg/mL) | –
46 | COc1cccc(CSc2ccc3nc(-c4ccc(F)cc4F)c(OC)n3n2)c1 | 15.1 (≈ 6.24 µg/mL) | 1.21 (≈ 0.5 µg/mL) | –
47 | COc1cccc(CSc2ccc3nc(-c4ccc(OC)c(OC)c4)c(OC)n3n2)c1 | > 220 | > 220 | –
48 | COCCOc1c(-c2ccccc2)nc2ccc(SCc3ccccc3)nn12 | 255 (≈ 99.8 µg/mL) | 63.9 (≈ 25 µg/mL) | –

Row | SMILES | MIC90 [1] [µM] | MIC90 (Mycobacterium marinum) [µM] | Activity [2]
49 | COc1cccc(CNc2ccc3nc(-c4cccc(C(F)(F)F)c4)c(OC)n3n2)c1 | 23.3 (≈ 9.98 µg/mL) | 9.34 (≈ 4 µg/mL) | –
50 | COCCOc1c(-c2ccccc2)nc2ccc(SCc3cccc(OC)c3)nn12 | 29.7 (≈ 12.5 µg/mL) | 119 (≈ 50.2 µg/mL) | –
51 | CCOc1c(-c2ccccc2)nc2ccc(SCc3cccc(OC)c3)nn12 | 2.55 (≈ 0.998 µg/mL) | 1.28 (≈ 0.501 µg/mL) | –
52 | COc1cccc(CSc2ccc3nc(-c4ccc(F)cc4F)c(CN4CCOCC4)n3n2)c1 | 207 (≈ 99.9 µg/mL) | 207 (≈ 99.9 µg/mL) | –
53 | CN(Cc1ccccc1)c1ccc2nc(-c3ccc(C(F)(F)F)cc3)c(O)n2n1 | > 251 | 251 (≈ 100 µg/mL) | –
54 | COc1cccc(COc2ccc3nc(-c4ccc(F)cc4)c(OC)n3n2)c1 | 2.64 (≈ 1 µg/mL) | 2.64 (≈ 1 µg/mL) | –
55 | COc1c(-c2ccc(F)cc2F)nc2ccc(SCc3ccsc3)nn12 | 10.3 (≈ 4.01 µg/mL) | 2.57 (≈ 1 µg/mL) | –
56 | c1ccc(COc2ccc3nc(-c4ccccc4)cn3n2)cc1 | 332 (≈ 100 µg/mL) | > 330 | –
57 | COc1cccc(CSc2ccc3nc(-c4ccc(F)cc4F)c(CN(C)C)n3n2)c1 | 227 (≈ 100 µg/mL) | 227 (≈ 100 µg/mL) | –
58 | COc1cccc(COc2ccc3nc(-c4ccc(C(F)(F)F)cc4)c(OC)n3n2)c1 | > 230 | > 230 | –
59 | COc1cccc(CNc2ccc3nc(-c4ccccc4)c(OC)n3n2)c1 | 6.94 (≈ 2.5 µg/mL) | 6.94 (≈ 2.5 µg/mL) | –
60 | COc1ccc(CSc2ccc3nc(-c4ccc(Cl)c(Cl)c4)c(OC)n3n2)cc1 | > 220 | > 220 | –
61 | CCOc1c(-c2ccccc2F)nc2ccc(SCc3cccc(OC)c3)nn12 | 3.05 (≈ 1.25 µg/mL) | 3.05 (≈ 1.25 µg/mL) | –
62 | COc1cccc(CS(=O)(=O)c2ccc3nc(-c4ccc(F)cc4)c(OC)n3n2)c1 | 234 (≈ 100 µg/mL) | 234 (≈ 100 µg/mL) | –
63 | COc1c(-c2cccc([N+](=O)[O-])c2)nc2ccc(N(C)Cc3ccccc3)nn12 | > 250 | > 250 | –
64 | O=c1oc2ccccc2c2nc3ccc(SCc4ccccc4)nn3c12 | 278 (≈ 99.9 µg/mL) | 278 (≈ 99.9 µg/mL) | –
65 | CN(Cc1ccccc1)c1ccc2nc(-c3ccccc3F)c(O)n2n1 | 144 (≈ 50.2 µg/mL) | 287 (≈ 100 µg/mL) | –
66 | c1ccc(CSc2ccc3nc(-c4ccccc4)cn3n2)cc1 | > 315 | > 315 | –
67 | COc1cccc(CSc2ccc3nc(-c4ccc(F)cc4)c(CN(C)C)n3n2)c1 | 23.7 (≈ 10 µg/mL) | 47.3 (≈ 20 µg/mL) | –
68 | COc1c(-c2ccccc2)nc2ccc(OCc3ccccc3)nn12 | 3.02 (≈ 1 µg/mL) | 1.51 (≈ 0.5 µg/mL) | –
69 | COc1c(Cc2ccccc2)nc2ccc(SCc3cccc([N+](=O)[O-])c3)nn12 | > 245 | 24.6 (≈ 10 µg/mL) | –
70 | COc1cccc(CNc2ccc3nc(-c4ccccc4F)c(OC)n3n2)c1 | 6.61 (≈ 2.5 µg/mL) | 6.61 (≈ 2.5 µg/mL) | –
71 | COc1c(-c2ccc(Br)cc2)nc2ccc(N(C)Cc3ccccc3)nn12 | 5.91 (≈ 2.5 µg/mL) | 11.8 (≈ 5 µg/mL) | –
72 | COc1cccc(CNc2ccc3nc(-c4cccc(F)c4)c(OC)n3n2)c1 | 52.9 (≈ 20 µg/mL) | 26.4 (≈ 9.99 µg/mL) | –
